Holding throughout (assay): MIC, liquid medium test tube series dilution test
One experiment has as its system Klebsiella K 10. It is filed as cell-based. The following applies: Klebsiella K 10, 24 hours, 37°C. Summed up:
(§1)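 Read-out: visual turbidity after 24 h at 37°C. The MIC, in units/ml, corresponds to the non-turbid tube in a liquid-medium test tube dilution series prepared in complete nutrient medium.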

In experiment [1] the test system is Streptoc. faec. ATCC 9790. In kind it is cell-based. The following applies: Strep. faec. (Enterococcus) ATCC 9790, 24 hours, 37°C. The method, boiled down: as §1
Another experiment has as its system E. coli 14. In kind it is cell-based. The following applies: E. coli 14, 24 hours, 37°C. Summed up:
as §1

Another experiment has as its system Klebsiella 63. In kind it is cell-based. The following applies: Klebsiella 63, 24 hours, 37°C. The method, boiled down: as §1
The test system of a further experiment is E. coli A 261. It is filed as cell-based. The following applies: E. coli A 261, 24 hours, 37°C. The method, boiled down:
as §1

The test system of the next experiment is E. coli C 165. In kind it is cell-based. To be noted: E. coli C 165, 24 hours, 37°C. The method, boiled down: as §1
The test system of the next experiment is E. coli 183/58. In kind it is cell-based. To be noted: E. coli 183/58, 24 hours, 37°C. Summed up:
as §1

The subject of another experiment is Staph. aureus 133. In kind it is cell-based, Staphylococcus aureus. The following applies: Staph. aureus 133, 24 hours, 37°C. The method, boiled down: as §1
Another experiment deals with Staph. aureus 1777 E. It is filed as cell-based, Staphylococcus aureus. The following applies: 24 hours, 37°C. The method, boiled down:
as §1

The test system of the next experiment is Proteus vulg. 3400. In kind it is cell-based, Proteus vulgaris. The following applies: Proteus vulg. 3400, 24 hours, 37°C. Summed up: as §1
The next experiment concerns Proteus vulg. 1017. In kind it is cell-based, Proteus vulgaris. The following applies: Proteus vulg. 1017, 24 hours, 37°C. Summed up: as §1
Another experiment has as its system Psdm. aerug. Walter. It is filed as cell-based, Pseudomonas aerug. The following applies: 24 hours, 37°C. The method, boiled down:
as §1

A further experiment deals with Psdm. aerug. Bonn. It is filed as cell-based, Pseudomonas aerug. The following applies: 24 hours, 37°C. The method, boiled down:
as §1

With `COC(=O)N(C)C(=O)N[C@@H](C(=O)N[C@@H]1C(=O)N2[C@@H]1SC(C)(C)[C@@H]2C(=O)O)c1c(Cl)cccc1Cl` [Example 7, Sodium D(-)-α-(3-methoxycarbonyl-3-methyl-ureido)-2,6-dichlorobenzylpenicillin], the MIC against Klebsiella K 10 is more than 500 units/ml; in experiment [1], 100-500 units/ml; in the experiment with E. coli 14 it was 100-500 units/ml; with Klebsiella 63, more than 500 units/ml; against E. coli A 261, more than 500 units/ml; in the experiment on E. coli C 165, 100-500 units/ml. The MIC with E. coli 183/58 is reported as 100-500 units/ml; in the experiment on Staph. aureus 133 it was 0.8-4 units/ml; in the experiment on Staph. aureus 1777 E, 100-500 units/ml; against Proteus vulg. 3400, 100-500 units/ml; in the experiment with Proteus vulg. 1017, ~ 500 units/ml; in the experiment with Psdm. aerug. Walter it was more than 500 units/ml. Moreover, in the experiment with Psdm. aerug. Bonn, the MIC is listed as 100-500 units/ml.
Regarding `COC(=O)N(C)C(=O)N[C@H](C(=O)N[C@@H]1C(=O)N2[C@@H]1SC(C)(C)[C@@H]2C(=O)O)c1c(Cl)cccc1Cl` [Example 8, Sodium L(+)-α-(3-methoxycarbonyl-3-methyl-ureido)-2,6-dichlorobenzylpenicillin], the MIC (with Klebsiella K 10; in experiment [1]; against E. coli 14; against Klebsiella 63; with E. coli A 261; in the experiment on E. coli C 165) was more than 500 units/ml each time. In addition, the MIC in the experiment on E. coli 183/58 is on record as more than 500 units/ml; against Staph. aureus 133, 4-20 units/ml; in the experiment with Staph. aureus 1777 E, 100-500 units/ml; against Proteus vulg. 3400, more than 500 units/ml; in the experiment on Proteus vulg. 1017 it was more than 500 units/ml; in the experiment with Psdm. aerug. Walter it was more than 500 units/ml. Besides, the MIC against Psdm. aerug. Bonn is given as more than 500 units/ml.
As for `CC1(C)S[C@@H]2[C@H](NC(=O)[C@H](NC(=O)N3CCNC3=O)c3ccccc3)C(=O)N2[C@H]1C(=O)O` [Example 52, D(-)-α-[(Imidazolidin-2-on-1-yl)-carbonylamino]-benzylpenicillin], the MIC is reported as 100 units/ml in the experiment with Klebsiella K 10; 3,12 units/ml against E. coli 14; more than 400 units/ml against E. coli A 261; 12,5 units/ml in the experiment with E. coli C 165; 6,25 units/ml in the experiment on E. coli 183/58; < 0,78 units/ml against Staph. aureus 133. For the same molecule, the MIC in the experiment on Staph. aureus 1777 E is 200 units/ml; in the experiment with Psdm. aerug. Walter, 12,5 units/ml; in the experiment on Psdm. aerug. Bonn it was 12,5 units/ml.
In the case of `C=CCN(C(=O)N[C@@H](C(=O)N[C@@H]1C(=O)N2[C@@H]1SC(C)(C)[C@@H]2C(=O)O)c1ccccc1)C(=O)c1ccccc1` [Example 90, Sodium D(-)-α-(3-benzoyl-3-allyl-ureido)-benzylpenicillin], the MIC was 50 units/ml with Klebsiella K 10; 100 units/ml in experiment [1]; 6.25 units/ml against E. coli 14; 25 units/ml in the experiment on Klebsiella 63; 400 units/ml against E. coli A 261; 12.5 units/ml against E. coli C 165. In addition, the MIC with E. coli 183/58 is 12.5 units/ml; in the experiment on Staph. aureus 1777 E it was 50 units/ml; in the experiment on Proteus vulg. 3400 it was 25 units/ml; with Proteus vulg. 1017, 12.5 units/ml; in the experiment on Psdm. aerug. Walter it was 50 units/ml; in the experiment with Psdm. aerug. Bonn, 25 units/ml.
For the molecule `CCC(=O)N(C)C(=O)N[C@@H](C(=O)N[C@@H]1C(=O)N2[C@@H]1SC(C)(C)[C@@H]2C(=O)O)c1ccccc1` [Example 113, Sodium D(-)-α-(3-propionyl-3-methyl-ureido)-benzylpenicillin], the MIC with Klebsiella 63 was 100-500 units/ml; with E. coli C 165, 0.8-4 units/ml; in the experiment on Staph. aureus 133 it was 0.8 units/ml; against Staph. aureus 1777 E it was 100-500 units/ml; with Proteus vulg. 1017, 4-20 units/ml; with Psdm. aerug. Walter, 4-20 units/ml.
On to `CCN(C(C)=O)C(=O)N[C@@H](C(=O)N[C@@H]1C(=O)N2[C@@H]1SC(C)(C)[C@@H]2C(=O)O)c1ccccc1` [Example 114, Sodium D(-)-α-(3-acetyl-3-ethyl-ureido)-benzylpenicillin], for which the MIC is 100-500 units/ml with Klebsiella 63; 4-20 units/ml with E. coli C 165; 0.8 units/ml in the experiment with Staph. aureus 133; 100-500 units/ml with Staph. aureus 1777 E; 20-100 units/ml in the experiment with Proteus vulg. 1017; 4-20 units/ml against Psdm. aerug. Walter.
With `CCCN(C(C)=O)C(=O)N[C@@H](C(=O)N[C@@H]1C(=O)N2[C@@H]1SC(C)(C)[C@@H]2C(=O)O)c1ccccc1` [Example 115, Sodium D(-)-α-(3-acetyl-3-n-propyl-ureido)-benzylpenicillin], the MIC in the experiment on Klebsiella 63 is reported as 100-500 units/ml; against E. coli C 165 it was 20-100 units/ml; against Staph. aureus 133, 0.8 units/ml; against Staph. aureus 1777 E it was 100-500 units/ml; against Proteus vulg. 1017 it was 20-100 units/ml; in the experiment on Psdm. aerug. Walter, 20-100 units/ml.
Consider `CC(C)C(=O)N(C)C(=O)N[C@@H](C(=O)N[C@@H]1C(=O)N2[C@@H]1SC(C)(C)[C@@H]2C(=O)O)c1ccccc1` [Example 116, Sodium D(-)-α-(3-i-butyryl-3-methyl-ureido)-benzylpenicillin], for which the MIC is recorded as 20-100 units/ml with Klebsiella 63; 4-20 units/ml against E. coli C 165; 0.8 units/ml against Staph. aureus 133; 100-500 units/ml in the experiment with Staph. aureus 1777 E; 4-20 units/ml against Proteus vulg. 1017; approximately 20 units/ml in the experiment on Psdm. aerug. Walter.
As to `CCC(=O)N(C(=O)N[C@@H](C(=O)N[C@@H]1C(=O)N2[C@@H]1SC(C)(C)[C@@H]2C(=O)O)c1ccccc1)c1ccccc1` [Example 143, Sodium D(-)-α-(3-propionyl-3-phenyl-ureido)-benzylpenicillin], the MIC in the experiment on Klebsiella K 10 is listed as 50 units/ml; in experiment [1], 100 units/ml; in the experiment on E. coli 14, 12.5 units/ml; in the experiment on Klebsiella 63, 100 units/ml; in the experiment with E. coli A 261 it was more than 400 units/ml; with E. coli C 165, 50 units/ml. For the same molecule, the MIC is 50 units/ml against E. coli 183/58; less than 0.8 units/ml with Staph. aureus 133; 400 units/ml in the experiment on Proteus vulg. 3400; 200 units/ml in the experiment on Proteus vulg. 1017; 200 units/ml against Psdm. aerug. Walter; 200 units/ml in the experiment on Psdm. aerug. Bonn.

(Values after patent US3974140A, “Ureidoacetamido-penicillins” (Bayer Aktiengesellschaft, priority 1970, dated 1976).)
